Patent US11109593B2, “Isoxazolin-5-one derivative and herbicide containing same as active ingredient” (HOKKO CHEMICAL INDUSTRY CO., LTD., priority 2017, dated 2021)

Key:
Assay type in all cases: in vivo
Echinochloa crus-galli [1] = experiment: Test Example 4: herbicidal effect test by treatment of leave and stem in dry field farming (seven days after seeding); conditions: 120 g/10a active ingredient; emulsion sprayed seven days after seeding; evaluated 14 days after treatment
Description: (§1) This test was conducted in a double system per one agent solution concentration area, and the herbicidal rates (%) were determined by the following equation (Math. 1) on 14 days after the treatment with the agents. Herbicidal Rate (%)={1-(Average Dry Weight (g) of Plant of Treated Area)/(Average Dry Weight (g) of Plant of Untreated Area)}×100 [Math. 1]
(§2) Herbicidal Effect Test by Treatment of Leave and Stem in Dry Field Farming
(§3) Pots with a size of 36 cm^2 were filled with a dry field farming soil (alluvium). The soil of the top layer of 1 cm and seeds of weeds, namely southern crabgrass, Echinochloa crus-galli, Chenopodium album and Amaranthus viridis, 20 seeds each, were evenly mixed, and the top layer was gently pressed. Emulsions prepared using the compounds in Table 6 below according to Formulation Example 5 were diluted with water seven days after seeding, and the water-diluted agent solutions were sprayed to the soil surfaces at a ratio of 100 liters per 10 ares. The converted amount of the applied active ingredient corresponded to 120 g per 10 ares. The herbicidal effects were evaluated by the same standard as that in Test Example 1 on 14 days after the treatment with the agents. […] The compound numbers in Table 6 are the same as those in Table 1 and Table 2 above.

Amaranthus viridis [2] = experiment: as above; conditions: 120 g/10a active ingredient; emulsion sprayed seven days after seeding; evaluated 14 days after treatment
Description: as §1, §2, §3

southern crabgrass [3] = experiment: as above; conditions: 120 g/10a active ingredient; emulsion sprayed seven days after seeding; evaluated 14 days after treatment
Description: as §1, §2, §3

Chenopodium album [4] = experiment: as above; conditions: 120 g/10a active ingredient; emulsion sprayed seven days after seeding; evaluated 14 days after treatment
Description: as §1, §2, §3

[5] = tested on: broad leaf weeds (Lindernia pyxidaria and Monochoria vaginalis); experiment: Test Example 1: herbicidal effect test by treatment of rice paddy soil (immediately after seeding); conditions: 120 g/10a active ingredient, dry weight vs untreated area, 14 days after treatment
How it was run: (§4)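 Values are herbicidal rates (%) derived from average plant dry weight in treated versus untreated pots 14 days after treatment, run in duplicate. Treatment was a water-diluted emulsion dropped into flooded paddy soil right after sowing, at 120 g active ingredient per 10 ares.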

Echinochloa crus-galli [6] = experiment: as above; conditions: 120 g/10a active ingredient, dry weight vs untreated area, 14 days after treatment
How it was run: as §4

Scirpus juncoides [7] = experiment: as above; conditions: 120 g/10a active ingredient, dry weight vs untreated area, 14 days after treatment
How it was run: as §4

[8] = tested on: broad leaf weeds (Lindernia pyxidaria and Monochoria vaginalis); experiment: Test Example 2: herbicidal effect test by treatment during growing period in paddy rice cultivation (seven days after seeding); conditions: 120 g/10a active ingredient, assessed 14 days after treatment, dry weight vs untreated area
How it was run: (§5)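 Greenhouse flooded-pot test, seeds sown in puddled paddy soil; emulsion applied into water 7 d after seeding, 120 g a.i./10 a. Dry-weight-based herbicidal rate at 14 d, n=2.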

Echinochloa crus-galli [9] = experiment: as above; conditions: 120 g/10a active ingredient, assessed 14 days after treatment, dry weight vs untreated area
How it was run: as §5

Scirpus juncoides [10] = experiment: as above; conditions: 120 g/10a active ingredient, assessed 14 days after treatment, dry weight vs untreated area
How it was run: as §5

Echinochloa crus-galli [11] = experiment: Test Example 3: herbicidal effect test by treatment of dry field farming soil (one day after seeding); conditions: 120 g/10a active ingredient, evaluated 14 days after treatment
Description: as §1
(§6) Herbicidal Effect Test by Treatment of Dry Field Farming Soil
as §3, with “Table 5” for “Table 6”, “water one day” for “water seven days”

Amaranthus viridis [12] = experiment: as above; conditions: 120 g/10a active ingredient, evaluated 14 days after treatment
Description: as §1, §6
as §3, with “Table 5” for “Table 6”, “water one day” for “water seven days”

southern crabgrass [13] = experiment: as above; conditions: 120 g/10a active ingredient, evaluated 14 days after treatment
Description: as §1, §6
as §3, with “Table 5” for “Table 6”, “water one day” for “water seven days”

Chenopodium album [14] = experiment: as above; conditions: 120 g/10a active ingredient, evaluated 14 days after treatment
Description: as §1, §6
as §3, with “Table 5” for “Table 6”, “water one day” for “water seven days”

SMILES	herbicidal effect (herbicidal rate), Echinochloa crus-galli (Echinochloa crus-galli [1])	herbicidal effect (herbicidal rate), Amaranthus viridis (Amaranthus viridis [2])	herbicidal effect (herbicidal rate), southern crabgrass (southern crabgrass [3])	herbicidal effect (herbicidal rate), Chenopodium album (Chenopodium album [4])	Herbicidal rate (%) Lindernia pyxidaria [5]	Herbicidal rate (%) Monochoria vaginalis [5]	Herbicidal rate (%) Echinochloa crus-galli (Echinochloa crus-galli [6])	Herbicidal rate (%) Scirpus juncoides (Scirpus juncoides [7])	Herbicidal rate (%) Lindernia pyxidaria [8]	Herbicidal rate (%) Monochoria vaginalis [8]	Herbicidal rate (%) Echinochloa crus-galli (Echinochloa crus-galli [9])	Herbicidal rate (%) Scirpus juncoides (Scirpus juncoides [10])	herbicidal rate, Echinochloa crus-galli (Echinochloa crus-galli [11])	herbicidal rate, Amaranthus viridis (Amaranthus viridis [12])	herbicidal rate, southern crabgrass (southern crabgrass [13])	herbicidal rate, Chenopodium album (Chenopodium album [14])
CCCOC(=O)N(c1ccccc1Cc1c(C)n(C(C)CC)oc1=O)S(=O)(=O)C(F)(F)F (stereo not drawn) [Compound 1-632]	90%	40%	90%	40%	90%	90%	90%	90%	90%	90%	90%	90%	–	–	–	–
CC(C)Cn1oc(=O)c(Cc2ccccc2NS(=O)(=O)C(F)(F)F)c1C(F)(F)F [Compound 1-81]	90%	0%	80%	0%	80%	80%	90%	90%	60%	80%	80%	90%	–	–	–	–
Cc1c(Cc2ccccc2NS(=O)(=O)C(F)(F)F)c(=O)on1CCCl [Compound 1-133]	90%	0%	40%	40%	100%	100%	80%	100%	60%	80%	60%	80%	–	–	–	–
Cc1c(Cc2ccccc2NS(=O)(=O)C(F)(F)F)c(=O)on1CC(F)(F)F [Compound 1-134]	90%	50%	60%	40%	60%	80%	80%	80%	40%	80%	80%	80%	–	–	–	–
Cc1c(Cc2ccccc2N(S(=O)(=O)C(F)(F)F)S(=O)(=O)C(F)(F)F)c(=O)on1C(C)c1ccccc1 (stereo not drawn) [Compound 1-1030]	90%	40%	40%	40%	100%	100%	90%	90%	90%	90%	90%	90%	–	–	–	–
Cc1c(Cc2cc(F)ccc2N(S(=O)(=O)C(F)(F)F)S(=O)(=O)C(F)(F)F)c(=O)on1Cc1ccccc1 [Compound 1-32]	0%	40%	40%	60%	80%	90%	80%	90%	80%	90%	90%	90%	–	–	–	–
CSCCCn1oc(=O)c(Cc2ccccc2N(S(=O)(=O)C(F)(F)F)S(=O)(=O)C(F)(F)F)c1C [Compound 1-1003]	60%	40%	40%	0%	90%	90%	100%	90%	70%	70%	100%	90%	–	–	–	–
Cc1c(Cc2ccccc2N(S(=O)(=O)C(F)(F)F)S(=O)(=O)C(F)(F)F)c(=O)on1CCCl [Compound 1-983]	60%	40%	40%	0%	90%	90%	70%	90%	80%	80%	40%	80%	–	–	–	–
Cc1c(Cc2ccccc2N(S(=O)(=O)C(F)(F)F)S(=O)(=O)C(F)(F)F)c(=O)on1CCCc1ccccc1 [Compound 1-1048]	–	–	–	–	80%	60%	90%	80%	60%	60%	90%	40%	40%	40%	0%	40%
Cc1c(Cc2ccccc2NS(=O)(=O)C(F)(F)F)c(=O)on1CC1CC1 [Compound 1-143]	–	–	–	–	100%	100%	90%	90%	70%	80%	90%	90%	50%	60%	40%	0%
Cc1c(Cc2ccccc2N(S(=O)(=O)C(F)(F)F)S(=O)(=O)C(F)(F)F)c(=O)on1Cc1ccccc1 [Compound 1-1011]	–	–	–	–	90%	90%	90%	90%	90%	90%	40%	90%	90%	40%	80%	40%
